Assay results taken from patent EP4624471A1, “PKMYT1 INHIBITOR, PREPARATION METHOD THEREFOR, AND PHARMACEUTICAL COMPOSITION AND USE THEREOF” (Shanghai Qilu Pharmaceutical Research and Development …, priority 2022, dated 2024).
Converted amounts (≈) assume the structure as drawn.

What was measured:
PKMYT1 enzyme = target: T1, PKMYT1 enzyme (Homo sapiens, UniProt Q99640); test: PKMYT1 enzyme inhibition activity, ADP-GLO method; assay type: biochemical; conditions: PKMYT1 enzyme 10 nM, ATP 5 µM, 37°C 90 minutes; read-out: ADP-GLO IC50
T1 construct: purchased Thermo Scientific A33387
T1 sequence (Q99640 1-499): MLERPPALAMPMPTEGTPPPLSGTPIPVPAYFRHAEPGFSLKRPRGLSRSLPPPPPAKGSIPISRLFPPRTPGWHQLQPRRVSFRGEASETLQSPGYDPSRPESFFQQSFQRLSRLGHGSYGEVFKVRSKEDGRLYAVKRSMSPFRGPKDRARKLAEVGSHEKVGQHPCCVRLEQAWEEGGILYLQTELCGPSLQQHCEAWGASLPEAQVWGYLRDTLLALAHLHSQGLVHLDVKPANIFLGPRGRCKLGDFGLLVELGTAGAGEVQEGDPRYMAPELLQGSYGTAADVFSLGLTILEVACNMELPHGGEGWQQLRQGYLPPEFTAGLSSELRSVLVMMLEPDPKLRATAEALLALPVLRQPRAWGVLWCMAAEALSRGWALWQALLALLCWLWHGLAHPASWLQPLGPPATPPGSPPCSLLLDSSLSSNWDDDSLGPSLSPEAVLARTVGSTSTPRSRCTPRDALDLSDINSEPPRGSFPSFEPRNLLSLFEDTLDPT
Method: Enzyme inhibition activity of compounds of the present disclosure
The enzyme activity of some of the example compounds was verified using the ADP-GLO method.
PKMYT1 enzyme protein was purchased from Thermo Scientific (Cat. No.: A33387), and the ADP-GLO kit was purchased from Promega (Cat. No.: V9103).
PKMYT1 enzyme activity reaction buffer: 70 mM HEPES, 3 mM MgCl2, 3 mM MnCl2, 50 µg mL-1PEG20000, 3 µM sodium orthovanadate, 1.2 mM DTT.
The reaction plate with the added compounds was centrifuged at 2500 rpm for 1 minute.
The prepared enzyme solution was added to the reaction plate, 5 µL per well, and the final concentration of enzyme was 10 nM. The reaction plate was centrifuged at 1000 rpm for 1 minute. The reaction plate was placed in an incubator at 37°C for 15 minutes.
The prepared ATP substrate solution was added to the reaction plate, 5 µL per well, and the final concentration of ATP was 5 µM. The reaction plate was centrifuged at 1000 rpm for 1 minute. After sealing the plate with aluminum foil, the plate was placed in an incubator and the reaction was carried out at 37°C for 90 minutes.
10 µL of ADP-glo™ reagent was added to stop the kinase reaction and consume unconsumed ATP, leaving only ADP and a very low ATP background. The reaction plate was centrifuged at 1000 rpm for 1 minute. After sealing the plate with aluminum foil, the reaction was carried out at room temperature for 60 minutes.
ADP was converted to ATP by adding 20 µL of kinase detection reagent, and luciferase and luciferin were introduced to detect ATP. The reaction plate was centrifuged at 1000 rpm for 1 minute. After sealing the plate with aluminum foil, the reaction was carried out at room temperature for 60 minutes.
The ADP-GLO luminescence signal values were read by the microplate reader PHERAstar, and the readings were analyzed.

HCC1569 cells = test: Cytostatic activity, CTG assay (HCC1569); assay type: cell-based; conditions: Homo sapiens, HCC1569, 120 h, 5 days
Method: Biological test example 2. Cytostatic activity of compounds of the present disclosure
CTG assay (HCC1569) was used to verify the biological activity of some of the example compounds of the present disclosure.
HCC1569 cells were purchased from ATCC (Cat. No.: CRL-2330) and cultured in a 37°C, 5% CO2 cell culture incubator. HCC1569 complete medium: RPMI-1640 liquid medium (Cat. No.: Gibico 11875-093), 20% FBS (Cat. No.: Gibico 10099-141), 1% Pen Strep (Cat. No.: Gibico 15070-063).
HCC1569 cells in a 75 cm^2 culture flask were digested with 2 mL of trypsin for 2-3 min, and then neutralized with 2 mL of 1640 complete medium. The mixture was centrifuged at 1200 rpm for 5 minutes. Cells were resuspended using 4 mL of 1640 complete medium. 500 µL of cell suspension was taken for cell counting using Vi-CELL-XR cell counter.
Using a Multidrop instrument, the HCC1569 cells were seeded in a 384-well plate at a density of 1000 cells per well (50 µL 1640 Growth Media) and administrated 24 hours later.
Using an ultra-micro pipette, the test compound (concentration: 3.33 mM, dissolved in DMSO) was diluted with 10 µM as the highest starting concentration, and then sequentially diluted in 10 gradients at a ratio of 1:3 (10000 nM, 3333 nM, 1111 nM, 370 nM, 123 nM, 41 nM, 13.7 nM, 4.6 nM, 1.5 nM, 0.5 nM) for administration treatment, with two duplicate wells for each concentration; 14 wells for positive and negative controls were set, with the positive control being the duplicate wells of 10 µM positive compound and the negative control being the duplicate wells of DMSO.
After the administration was completed, the cells were placed in a 37°C incubator for further culture for 5 days. After 5 days, 25 µL of CTG buffer was added to each well for CTG assay detection, and analyzed using a microplate reader. CTG readings were analyzed.
a = CTG value (highest concentration), b = CTG value (blank well), x = CTG value(test well).
IC50 was calculated using GraphPad PRISM 8.
Log10 (A compound concentration) was used for statistical calculation. (2) The data were input into GraphPad PRISM 8, and Analysis was selected. (3) Nonlinear regression (curve fit) was selected. (4) Log (inhibitor) vs. response-Variable slope was selected. (5) The calculation formula was selected, and the calculation was carried out according to the following formula: Y = Bottom + (Top-Bottom)/(1+10^((LogIC50-X)*HillSlope)), X: logarithm of dose or concentration, Y: response value, Top and Bottom: peak and bottom values. (6) The data were fitted to obtain IC50 values. (7) The fitting conditions were adjusted according to the specific data. Appropriate Constraint conditions were adjusted for Bottom, Top, and HillSlope. The curve that best fits the actual situation has been reached.

[1] = TS-FeSSIF & TS-FeSSGF solubility test; conditions: pH 5
[2] = Metabolic stability in human hepatocytes; conditions: for hepatocyte CLint at 1 µM: In vitro Clint (µL/min/10^6 cells); for half-life at 1 µM: t1/2 (min)
[3] = Metabolic stability in mouse liver microsomes
Method: The concentration of the parent drug in the incubation system was detected by LC/MS/MS, and the intrinsic clearance rate of the test compound in the microsome system was calculated to evaluate its stability. The test concentration of the test compound and the positive control compound was 1 µM. • 1. 25 µL of NADPH (10 mM) or phosphate buffered saline (100 mM, pH = 7.4) was transferred to the liver microsome incubation system, and 2 µL of the test sample or verapamil at a concentration of 200 µM was added. Samples supplemented with NADPH were prepared in duplicate, and NADPH-negative samples were prepared in singlicate. • 2. 30 µL of the suspension was taken at 0.5, 5, 15, 30, and 60 minutes, respectively. The reaction was stopped by adding 180 µL of acetonitrile containing internal standard and vortexed for 10 min. • 3. […] 100 µL of the supernatant was transferred to the sample injection plate, and 100 µL of pure water was added and mixed well for UPLC-MS/MS analysis. • 4. All data calculations were performed using Microsoft Excel software. Peak areas were detected by extracting ion chromatograms. The in vitro half-life (t1/2) of the parent drug was detected by linear fitting the natural logarithm of the parent drug elimination percentage with time.
The in vitro clearance rate Clint (unit: µL/min/mg) was calculated: in vitro CLint = kV/N; V = incubation volume per well (400 µL); V = incubation volume per well (400 µL).

[4] = Tissue distribution: tumor tissue concentration in OVCAR3 tumor-bearing mice; conditions: BALB/c nude mice, 10 mpk p.o. BIDx28D; for Tumor tissue concentration (ng/g) 2 h after administration: 2 h after last administration; for Tumor tissue concentration (ng/g) 6 h after administration: 6 h after last administration
Method: The cells were cultured in an incubator at 37°C and 5% CO2. The medium was changed every other day, and the cells were subcultured every 3 to 4 days after the cells had become confluent. Under sterile conditions, the in vitro cultured OVCAR3 cell suspension was taken, centrifuged, and added to adjust the cell concentration to 1 × 10^8 cells/mL, and an equal volume of Matrigel was added, and inoculated subcutaneously on the back of the right hind forelimb of mice (BALB/c nude mice, female, Beijing Vital River Laboratory Animal Technology Co., Ltd.) (0.1 mL/mouse). […] The mice were randomly divided into groups according to tumor size and weight, and the administration of the test compound was started.
The experiment was divided into a solvent control group, a positive control group, and a test group, with 5-6 mice in each group. For the test compound administration group, the test compound was mixed in 0.5% methylcellulose and administered by oral gavage twice a day. The experiment was terminated 28 days after administration, and PK plasma (EDTA-K2 anticoagulated) samples were collected (0.5 h, 1 h, 2 h, and 6 h after administration), and the mice were euthanized and tumor samples were collected 2 h and 6 h after the last administration.
Tumor concentration test method:
All tumor samples were added with pure water at a ratio of 1:3 (3 mL solvent per g tumor), and homogenized using a cryogenic homogenizer to obtain tumor sample solutions.
Standard curve preparation method:
The powder of the test compound was diluted in a gradient manner with 50% acetonitrile aqueous solution to obtain a series of working solutions. 3 µL of working solution (10, 20, 40, 100, 200, 1000, 2000, 10000, and 20000 ng/mL) was added to 57 µL of blank Balb/c nude mouse tumor sample solution to obtain calibration standard solutions of 0.5 to 1000 ng at concentrations of 0.5, 1, 2, 5, 10, 50, 100, 500, and 1000 ng/mL, respectively, in a total volume of 60 µL.
Quality control samples were prepared in the same manner as the calibration standard solutions: 3 µL of working solution (30, 60, 120, 1000, 8000, and 16000 ng/mL) was added to 57 µL of blank Balb/c nude mouse tumor sample solution to obtain 6 quality control samples with concentrations of 1.5 ng/mL, 3 ng/mL, 6 ng/mL, 50 ng/mL, 400 ng/mL, and 800 ng/mL, respectively, with a total volume of 60 µL.
30 µL of the sample (including standard solution, quality control sample, and test sample) was taken, and 200 µL of protein precipitant containing acetonitrile was added to precipitate the protein, vortexed for 30 seconds, then centrifuged at 4°C and 3900 rpm for 15 minutes, and then the supernatant was aspirated and diluted 3 times with water. 5 µL of the diluted supernatant was loaded on the LC/MS/MS system for quantitative analysis.

[5] = 24 h, pH 5
physchem = conditions: pH 5, Solubility (µg/mL)

Molecule `Cc1cc(F)c(O)c(C)c1-n1c(N)c(C(N)=O)c2cc(C(F)(F)F)c(C)nc21` (atropisomer, axis not shown) [Example 59.1] has an IC50 (PKMYT1 enzyme) of 4.49 nM, an IC50 (HCC1569 cells) of 56 nM and a solubility at 24 h ([1]; ts-fessgf) of 253 µg/mL (≈ 639 µM). It also gave a solubility at 24 h ([1]; ts-fessif) of 352 µg/mL (≈ 888 µM), a hepatocyte CLint at 1 µM ([2]; Female) of 10 µL/min/1e6 cells and a hepatocyte CLint at 1 µM ([2]; Male) of 7 µL/min/1e6 cells. The half-life at 1 µM ([2]; Female) was 2.3 h, the half-life at 1 µM ([2]; Male) was 3.3 h and the half-life at 1 µM ([3]; liver microsomes) was 3.08 h. The microsomal CLint at 1 µM ([3]; liver microsomes) was < 7.5 µL/min/mg, the “Tumor tissue concentration (ng/g) 2 h after administration” value [4] was 633 ng/g and the “Tumor tissue concentration (ng/g) 6 h after administration” value [4] was 231 ng/g.

In the case of `Cc1cc2c(C(N)=O)c(N)n(-c3c(C)ccc(O)c3C)c2nc1C` (atropisomer, axis not shown) [RP-6306, reference compound], the “Solubility” value [5] is reported as 33.9 µg/mL (≈ 105 µM), the solubility at 24 h (physchem) is reported as 31.6 µg/mL (≈ 97.4 µM) and the half-life at 1 µM ([3]; microsomes) is reported as 0.377 h. The microsomal CLint at 1 µM ([3]; microsomes) was 61.3 µL/min/mg, the “Tumor tissue concentration (ng/g) 2 h after administration” value [4] was 172 ng/g and the “Tumor tissue concentration (ng/g) 6 h after administration” value [4] was 18 ng/g.

`Cc1cc(F)c(O)c(C)c1-n1c(N)c(C(N)=O)c2cc(C(C)C)c(C)nc21` (atropisomer, axis not shown) [Example 159.1] gave an IC50 (PKMYT1 enzyme) of 4.42 nM and an IC50 (HCC1569 cells) of 31 nM.

Work on `CCc1nc2c(cc1C)c(C(N)=O)c(N)n2-c1c(C)c(O)cc(F)c1C` [Example 136] yielded an IC50 (PKMYT1 enzyme) of 9.9 nM and an IC50 (HCC1569 cells) of 21 nM.

Molecule `Cc1c(O)cc(F)c(C)c1-n1c(N)c(C(N)=O)c2cc(-c3ccccc3)cnc21` (atropisomer, axis not shown) [Example 119.1] has an IC50 (PKMYT1 enzyme) of 4.66 nM and an IC50 (HCC1569 cells) of 18 nM.

With `Cc1cc(F)c(O)c(C)c1-n1c(N)c(C(N)=O)c2cc(Br)c(C)nc21` (atropisomer, axis not shown) [Example 58.1] the IC50 (PKMYT1 enzyme) was 3.08 nM, the IC50 (HCC1569 cells) was 83 nM and the half-life at 1 µM ([3]; liver microsomes) was 1.16 h. The microsomal CLint at 1 µM ([3]; liver microsomes) was 19.9 µL/min/mg.

`Cc1nc2c(cc1-c1nccs1)c(C(N)=O)c(N)n2-c1c(C)c(O)cc(F)c1C` [Example 127] gave an IC50 (PKMYT1 enzyme) of 9.17 nM and an IC50 (HCC1569 cells) of 14 nM.

Work on `Cc1cc(F)c(O)c(C)c1-n1c(N)c(C(N)=O)c2c3c(c(C)nc21)CCC3` (atropisomer, axis not shown) [Example 176.2] yielded an IC50 (PKMYT1 enzyme) of 10.2 nM and an IC50 (HCC1569 cells) of 68 nM.
